Measured values: US8609592B2, “2-(substituted phenyl)-6-amino-5-alkoxy, thioalkoxy and aminoalkyl-4-pyrimidinecarboxylates and their use as herbicides” (Dow AgroSciences LLC, priority 2007, dated 2013)

What was measured:
[1] = system: Wild buckwheat (Polygonum convolvulus); experiment: General postemergence herbicidal activity, greenhouse; format: in vivo; conditions: Fallopia convolvulus, post-emergence, 336 h, post-emergent, visual score after 14 days (0 no injury, 100 complete kill), read-out: % Growth Reduction POLCO; for pest or weed control at 140 g/ha: 140 g ai/ha; for pest or weed control at 280 g/ha: 280 g ai/ha
Protocol: (§1) Seeds or nutlets of the desired test plant species were planted in Sun Gro MetroMix® 360 planting mixture, which typically has a pH of 6.0 to 6.8 and an organic matter content of about 30 percent, in plastic pots with a surface area of 64 square centimeters. When required to ensure good germination and healthy plants, a fungicide treatment and/or other chemical or physical treatment was applied. The plants were grown for 7-21 days in a greenhouse with an approximate 15 hour photoperiod which was maintained at about 23-29° C. during the day and 22-28° C. during the night. Nutrients and water were added on a regular basis and supplemental lighting was provided with overhead metal halide 1000-Watt lamps as necessary. The plants were employed for testing when they reached the first or second true leaf stage.
(§2) A weighed amount, determined by the highest rate to be tested, of each test compound was dissolved in 4 mL of a 97:3 v/v (volume/volume) mixture of acetone and dimethyl sulfoxide (DMSO) to obtain concentrated stock solutions. […] The concentrated stock solutions obtained were diluted with 20 mL of an aqueous mixture containing acetone, water, isopropyl alcohol, DMSO, Atplus 411F crop oil concentrate, and Triton X-155 surfactant in a 48.5:39:10:1.5:1.0:0.02 v/v ratio to obtain spray solutions containing the highest application rates. Additional application rates were obtained by serial dilution of 12 mL of the high rate solution into a solution containing 2 mL of 97:3 v/v (volume/volume) mixture of acetone and dimethyl sulfoxide (DMSO) and 10 mL of an aqueous mixture containing acetone, water, isopropyl alcohol, DMSO, Atplus 411F crop oil concentrate, and Triton X-155 surfactant in a 48.5:39:10:1.5:1.0:0.02 v/v ratio to obtain ½×, ¼×, ⅛× and 1/16× rates of the high rate. Compound requirements are based upon a 12 mL application volume at a rate of 187 L/ha. Formulated compounds were applied to the plant material with an overhead Mandel track sprayer equipped with a 8002E nozzles calibrated to deliver 187 L/ha over an application area of 0.503 square meters at a spray height of […] above the average plant canopy height. Control plants were sprayed in the same manner with the solvent blank.
(§3) The treated plants and control plants were placed in a greenhouse as described above and watered by sub-irrigation to prevent wash-off of the test compounds. After 14 days, the condition of the test plants as compared with that of the untreated plants was determined visually and scored on a scale of 0 to 100 percent where 0 corresponds to no injury and 100 corresponds to complete kill.

[2] = system: Giant foxtail (Setaria faberi); experiment: as above; format: in vivo; conditions: post-emergence, 336 h, post-emergent, visual score after 14 days (0 no injury, 100 complete kill), read-out: % Growth Reduction SETFA; for pest or weed control at 140 g/ha: 140 g ai/ha; for pest or weed control at 280 g/ha: 280 g ai/ha
Protocol: as §1, §2, §3

[3] = system: Velvetleaf (Abutilon theophrasti); experiment: as above; format: in vivo; conditions: post-emergence, 336 h, post-emergent, visual score after 14 days (0 no injury, 100 complete kill), read-out: % Growth Reduction ABUTH; for pest or weed control at 140 g/ha: 140 g ai/ha; for pest or weed control at 280 g/ha: 280 g ai/ha
Protocol: as §1, §2, §3

[4] = system: Barnyardgrass (Echinochloa crus-galli); experiment: as above; format: in vivo; conditions: post-emergence, 336 h, post-emergent, visual score after 14 days (0 no injury, 100 complete kill), read-out: % Growth Reduction ECHCG; for pest or weed control at 140 g/ha: 140 g ai/ha
Protocol: as §1, §2, §3

Compound `CCOC(=O)c1nc(-c2ccc(Cl)cc2F)nc(N)c1OC` [Compound 13, 6-Amino-2-(4-chloro-2-fluorophenyl)-5-methoxypyrimidine-4-carboxylic acid ethyl ester] has a pest or weed control at 140 g/ha [1] of 100%, a pest or weed control at 140 g/ha [2] of 35% and a pest or weed control at 140 g/ha [3] of 100%. The pest or weed control at 140 g/ha [4] was 0%.

For `CCOC(=O)c1nc(-c2cc(C)c(Cl)cc2F)nc(N)c1OC` [Compound 3, 6-Amino-2-(4-chloro-2-fluoro-5-methylphenyl)-5-methoxypyrimidine-4-carboxylic acid ethyl ester], the pest or weed control at 280 g/ha [1] was 85%, the pest or weed control at 280 g/ha [2] was 0% and the pest or weed control at 280 g/ha [3] was 60%. It also gave a pest or weed control at 280 g/ha ([4]; 280 g ai/ha) of 0%.

Compound `CCOC(=O)c1nc(-c2cc(OC)c(Cl)cc2F)nc(N)c1OC` [Compound 16, 6-Amino-2-(4-chloro-2-fluoro-5-methoxyphenyl)-5-methoxypyrimidine-4-carboxylic acid ethyl ester] has a pest or weed control at 140 g/ha [1] of 100%, a pest or weed control at 140 g/ha [2] of 10% and a pest or weed control at 140 g/ha [3] of 60%. For the same compound, the pest or weed control at 140 g/ha [4] was 0%.

`CCOC(=O)c1nc(-c2ccc(Cl)c(C(C)F)c2F)nc(N)c1OC` (stereo not shown) [Compound 14, 6-Amino-2-[4-chloro-2-fluoro-3-(1-fluoroethyl)phenyl]-5-methoxypyrimidine-4-carboxylic acid ethyl ester] gave a pest or weed control at 140 g/ha [1] of 100%, a pest or weed control at 140 g/ha [2] of 100% and a pest or weed control at 140 g/ha [3] of 100%. It also gave a pest or weed control at 140 g/ha [4] of 100%.

`CCOc1c(N)nc(-c2ccc(Cl)c(OC)c2F)nc1C(=O)O` [Compound 18, 6-Amino-2-(4-chloro-2-fluoro-3-methoxyphenyl)-5-ethoxy-pyrimidine-4-carboxylic acid] gave a pest or weed control at 280 g/ha [1] of 100%, a pest or weed control at 280 g/ha [2] of 70% and a pest or weed control at 280 g/ha [3] of 70%.

With `CCOC(=O)c1nc(-c2ccc(C(F)(F)F)cc2)nc(N)c1OC` [Compound 11, 6-Amino-5-methoxy-2-(4-trifluoromethylphenyl)pyrimidine-4-carboxylic acid ethyl ester] the pest or weed control at 140 g/ha [1] was 85%, the pest or weed control at 140 g/ha [2] was 0% and the pest or weed control at 140 g/ha [3] was 90%. It also gave a pest or weed control at 140 g/ha [4] of 85%.

In the case of `COc1c(Cl)ccc(-c2nc(N)c(SC)c(C(=O)O)n2)c1F` [Compound 21, 6-Amino-2-(4-chloro-2-fluoro-3-methoxyphenyl)-5-methylsulfanyl-pyrimidine-4-carboxylic acid], the pest or weed control at 140 g/ha [1] is reported as 100%, the pest or weed control at 140 g/ha [2] is reported as 60% and the pest or weed control at 140 g/ha [3] is reported as 85%. It also gave a pest or weed control at 140 g/ha [4] of 100%.

In the case of `COc1c(N)nc(-c2ccc(Cl)c(OC)c2F)nc1C(=O)O` [Compound 22, 6-Amino-2-(4-chloro-2-fluoro-3-methoxyphenyl)-5-methoxypyrimidine-4-carboxylic acid], the pest or weed control at 140 g/ha [1] is reported as 100%, the pest or weed control at 140 g/ha [2] is reported as 100% and the pest or weed control at 140 g/ha [3] is reported as 100%. It also gave a pest or weed control at 140 g/ha [4] of 100%.

For `COc1c(N)nc(-c2ccc(C)cc2F)nc1C(=O)O` [Compound 28, 6-Amino-2-(2-fluoro-4-methylphenyl)-5-methoxypyrimidine-4-carboxylic acid], the melting point was 94 to 97 °C.

In the case of `CCOC(=O)c1nc(-c2ccc(C)cc2F)nc(N)c1OC` [Compound 10, 6-Amino-2-(2-fluoro-4-methylphenyl)-5-methoxypyrimidine-4-carboxylic acid ethyl ester], the pest or weed control at 140 g/ha [1] is reported as 90%, the pest or weed control at 140 g/ha [2] is reported as 0% and the pest or weed control at 140 g/ha [3] is reported as 100%. For the same compound, the pest or weed control at 140 g/ha [4] was 10%.

`CCOC(=O)c1nc(-c2ccc(Cl)cc2)nc(N)c1OC` [Compound 2, 6-Amino-2-(4-chlorophenyl)-5-methoxypyrimidine-4-carboxylic acid ethyl ester] gave a pest or weed control at 140 g/ha [1] of 100%, a pest or weed control at 140 g/ha [2] of 70% and a pest or weed control at 140 g/ha [3] of 98%. The pest or weed control at 140 g/ha [4] was 50%.

For `COC(=O)c1nc(-c2ccc(Cl)c(OC)c2F)nc(N)c1SC` [Compound 19, 6-Amino-2-(4-chloro-2-fluoro-3-methoxyphenyl)-5-methylsulfanylpyrimidine-4-carboxylic acid methyl ester], the pest or weed control at 195 g/ha ([1]; 195 g ai/ha) was 100%, the pest or weed control at 195 g/ha ([2]; 195 g ai/ha) was 85% and the pest or weed control at 195 g/ha ([3]; 195 g ai/ha) was 90%. The pest or weed control at 195 g/ha ([4]; 195 g ai/ha) was 90%.

With `COc1c(N)nc(-c2ccc(Cl)cc2F)nc1C(=O)O` [Compound 31, 6-Amino-2-(4-chloro-2-fluorophenyl)-5-methoxypyrimidine-4-carboxylic acid] the pest or weed control at 140 g/ha [1] was 100%, the pest or weed control at 140 g/ha [2] was 70% and the pest or weed control at 140 g/ha [3] was 100%. For the same compound, the pest or weed control at 140 g/ha [4] was 85%.

Work on `COc1c(N)nc(-c2ccc(C)cc2)nc1C(=O)O` [Compound 32, 6-Amino-5-methoxy-2-p-tolylpyrimidine-4-carboxylic acid] yielded a pest or weed control at 140 g/ha [1] of 100%, a pest or weed control at 140 g/ha [2] of 65% and a pest or weed control at 140 g/ha [3] of 80%. It also gave a pest or weed control at 140 g/ha [4] of 95%.

With `CCOC(=O)c1nc(-c2ccc3c(c2)OCO3)nc(N)c1OC` [Compound 12, 6-Amino-2-benzo[1,3]-dioxol-5-yl-5-methoxypyrimidine-4-carboxylic acid ethyl ester] the pest or weed control at 140 g/ha [1] was 80%, the pest or weed control at 140 g/ha [2] was 90% and the pest or weed control at 140 g/ha [3] was 50%. It also gave a pest or weed control at 140 g/ha [4] of 85%.

For `COC(=O)c1nc(-c2ccc(Cl)c(OC)c2F)nc(N)c1OC` [Compound 1, 6-amino-2-(4-chloro-2-fluoro-3-methoxyphenyl)-5-methoxypyrimidine-4-carboxylic acid methyl ester], the pest or weed control at 140 g/ha [1] was 100%, the pest or weed control at 140 g/ha [2] was 95% and the pest or weed control at 140 g/ha [3] was 100%. For the same compound, the pest or weed control at 140 g/ha [4] was 100%.

`CCOC(=O)c1nc(-c2ccc(Cl)c(F)c2)nc(N)c1OC` [Compound 9, 6-Amino-2-(4-chloro-3-fluorophenyl)-5-methoxypyrimidine-4-carboxylic acid ethyl ester] gave a pest or weed control at 140 g/ha [1] of 100%, a pest or weed control at 140 g/ha [2] of 30% and a pest or weed control at 140 g/ha [3] of 95%. For the same compound, the pest or weed control at 140 g/ha [4] was 90%.
